Earlier results in patent US20260021105A1, “METHOD FOR TREATING PSORIASIS” (Reviva Pharmaceuticals, Inc., priority 2023, published 2026).

Tests used:
[1] = molecular target: 5-HT2A (Homo sapiens, UniProt P28223); conditions: as a weak partial agonist or neutral antagonist
[2] = molecular target: serotonin transporter (SERT) (Homo sapiens, UniProt P31645)
[3] = test system: 5-HT2B/7; conditions: as an antagonist
[4] = molecular target: T1, 5-HT1A receptors (Homo sapiens, UniProt P08908); conditions: as partial agonist
T1 sequence (P08908 1-422): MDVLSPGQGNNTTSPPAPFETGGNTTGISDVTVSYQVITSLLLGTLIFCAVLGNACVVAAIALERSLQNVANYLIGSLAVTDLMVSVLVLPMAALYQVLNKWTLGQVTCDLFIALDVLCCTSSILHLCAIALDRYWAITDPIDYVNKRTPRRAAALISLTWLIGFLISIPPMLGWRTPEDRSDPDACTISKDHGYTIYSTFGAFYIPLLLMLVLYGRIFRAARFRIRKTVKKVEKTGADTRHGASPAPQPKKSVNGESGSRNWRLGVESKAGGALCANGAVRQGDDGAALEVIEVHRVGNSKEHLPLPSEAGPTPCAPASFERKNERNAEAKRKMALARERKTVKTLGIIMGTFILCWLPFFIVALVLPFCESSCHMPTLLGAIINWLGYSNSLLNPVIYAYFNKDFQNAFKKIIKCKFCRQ

[5] = test system: D2-4 receptors; conditions: as partial agonist

Chain of serotonin transporter (SERT) (P31645 whole entry, species assumed): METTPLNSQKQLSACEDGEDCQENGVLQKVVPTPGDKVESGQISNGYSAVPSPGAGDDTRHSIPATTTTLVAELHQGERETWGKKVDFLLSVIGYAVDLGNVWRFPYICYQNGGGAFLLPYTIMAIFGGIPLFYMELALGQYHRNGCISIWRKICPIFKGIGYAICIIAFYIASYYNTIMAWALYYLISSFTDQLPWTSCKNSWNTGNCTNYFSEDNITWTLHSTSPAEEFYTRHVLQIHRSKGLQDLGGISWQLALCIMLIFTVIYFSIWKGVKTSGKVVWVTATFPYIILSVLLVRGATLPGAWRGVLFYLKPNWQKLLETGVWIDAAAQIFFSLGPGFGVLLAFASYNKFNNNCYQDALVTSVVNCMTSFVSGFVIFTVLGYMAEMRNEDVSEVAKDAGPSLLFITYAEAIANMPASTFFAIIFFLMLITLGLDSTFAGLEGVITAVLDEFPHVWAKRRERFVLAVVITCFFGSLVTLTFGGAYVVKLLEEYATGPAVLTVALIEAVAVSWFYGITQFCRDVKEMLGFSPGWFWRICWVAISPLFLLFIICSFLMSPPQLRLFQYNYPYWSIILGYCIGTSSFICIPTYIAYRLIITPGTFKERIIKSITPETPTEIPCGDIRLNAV
Chain of 5-HT2A (P28223 whole entry, species assumed): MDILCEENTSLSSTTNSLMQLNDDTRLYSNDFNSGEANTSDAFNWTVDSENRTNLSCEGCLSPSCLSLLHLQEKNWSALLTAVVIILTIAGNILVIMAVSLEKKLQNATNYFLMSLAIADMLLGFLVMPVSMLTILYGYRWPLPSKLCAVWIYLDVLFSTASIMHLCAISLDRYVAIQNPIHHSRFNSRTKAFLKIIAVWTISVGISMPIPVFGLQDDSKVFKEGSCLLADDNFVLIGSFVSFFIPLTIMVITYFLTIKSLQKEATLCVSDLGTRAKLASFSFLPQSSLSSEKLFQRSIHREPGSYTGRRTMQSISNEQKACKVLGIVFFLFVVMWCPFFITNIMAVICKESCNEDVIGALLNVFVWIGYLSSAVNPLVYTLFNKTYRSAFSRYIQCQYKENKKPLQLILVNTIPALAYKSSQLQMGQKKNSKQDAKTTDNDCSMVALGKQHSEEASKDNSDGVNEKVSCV

SMILES: O=C1COc2ccc(OCCCCN3CCN(c4cccc(Cl)c4Cl)CC3)cc2N1 [Brilaroxazine]
- binding affinity [1]: high binding affinity
- affinity [2]: moderate affinity
- binding affinity [3]: high binding affinity
- binding affinity [4]: high binding affinity
- binding affinity [5]: high binding affinity
